From the supplement of paper PMC10307832 come the findings set out here.

Holding throughout (assay): relative viability (nuclei count vs DMSO), 5 days (fraction); higher = more cells survive
Compound in the assay “XMD8-85 + Palbociclib”: CN1CCN(CC1)C2=CC(=C(C=C2)NC3=NC=C4C(=N3)N(C5=CC=CC=C5C(=O)N4C)C)OC [XMD8-85] + CC(=O)c1c(C)c2cnc(Nc3ccc(N4CCNCC4)cn3)nc2n(C2CCCC2)c1=O [Palbociclib] (partner 0.5 µM)
In outline: (§1)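 Lung cancer cell lines in 1536-well plates were dosed by pin tool the day after seeding, either with one drug alone or with a fixed anchor-drug dose plus five library-drug doses (not always all listed) in √10 steps. After 5 days, cells were fixed and their nuclei stained in one step (final 0.05% Triton X-100, 1% formaldehyde, 1 ug/ml Hoechst), then counted on 4× images. Relative viability is the nuclei count in treated wells divided by that in vehicle wells. Values are medians of duplicate plates.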

Compound in the assay “XMD8-85 + Navitoclax”: CN1CCN(CC1)C2=CC(=C(C=C2)NC3=NC=C4C(=N3)N(C5=CC=CC=C5C(=O)N4C)C)OC [XMD8-85] + CC1(C)CCC(c2ccc(Cl)cc2)=C(CN2CCN(c3ccc(C(=O)NS(=O)(=O)c4ccc(N[C@H](CCN5CCOCC5)CSc5ccccc5)c(S(=O)(=O)C(F)(F)F)c4)cc3)CC2)C1 [Navitoclax] (partner 0.5 µM)
In outline: as §1

Compound in the assay “XMD8-85 + Linsitinib”: CN1CCN(CC1)C2=CC(=C(C=C2)NC3=NC=C4C(=N3)N(C5=CC=CC=C5C(=O)N4C)C)OC [XMD8-85] + C[C@]1(O)C[C@@H](c2nc(-c3ccc4ccc(-c5ccccc5)nc4c3)c3c(N)nccn32)C1 [Linsitinib] (partner 1 µM)
A digest of the protocol:
as §1

Compound in the assay “XMD8-85 + Trametinib”: CN1CCN(CC1)C2=CC(=C(C=C2)NC3=NC=C4C(=N3)N(C5=CC=CC=C5C(=O)N4C)C)OC [XMD8-85] + CC(=O)Nc1cccc(-n2c(=O)n(C3CC3)c(=O)c3c(Nc4ccc(I)cc4F)n(C)c(=O)c(C)c32)c1 [Trametinib] (partner 0.02 µM)
In outline: as §1

For NCI-H647, the relative viability with XMD8-85 + Palbociclib (first compound 0.08 µM) was found to be 0.342; with XMD8-85 + Palbociclib (first compound 0.253 µM) it was 0.325; in the assay with XMD8-85 + Palbociclib (first compound 0.8 µM), 0.406; in the assay with XMD8-85 + Palbociclib (first compound 2.53 µM), 0.523; in the assay with XMD8-85 + Palbociclib (first compound 8 µM) it was 0.282; in the assay with XMD8-85 + Navitoclax (first compound 0.08 µM) it was 1.35. For the same cell line, the relative viability in the assay with XMD8-85 + Navitoclax (first compound 0.253 µM) came out at 1.19; in the assay with XMD8-85 + Navitoclax (first compound 0.8 µM), 1.27; with XMD8-85 + Navitoclax (first compound 2.53 µM), 1.14; with XMD8-85 + Navitoclax (first compound 8 µM) it was 0.556; with XMD8-85 + Linsitinib (first compound 0.08 µM) it was 1.29; in the assay with XMD8-85 + Linsitinib (first compound 0.253 µM), 1.35. In addition, the relative viability in the assay with XMD8-85 + Linsitinib (first compound 0.8 µM) was 1.55; with XMD8-85 + Linsitinib (first compound 2.53 µM), 0.862; with XMD8-85 + Linsitinib (first compound 8 µM), 0.634; in the assay with XMD8-85 + Trametinib (first compound 0.08 µM) it was 0.478; with XMD8-85 + Trametinib (first compound 0.253 µM), 0.486; in the assay with XMD8-85 + Trametinib (first compound 0.8 µM), 0.485. The results for the relative viability with XMD8-85 + Trametinib (first compound 2.53 µM) and in the assay with XMD8-85 + Trametinib (first compound 8 µM) were 0.465 and 0.28, respectively.

NCI-H727: the relative viability with XMD8-85 + Palbociclib (first compound 0.253 µM) worked out at 0.689; with XMD8-85 + Palbociclib (first compound 0.8 µM), 0.6; with XMD8-85 + Palbociclib (first compound 2.53 µM), 0.6; with XMD8-85 + Navitoclax (first compound 0.08 µM), 0.466; in the assay with XMD8-85 + Navitoclax (first compound 0.253 µM), 0.365; with XMD8-85 + Navitoclax (first compound 2.53 µM), 0.379. Further, the relative viability with XMD8-85 + Navitoclax (first compound 8 µM) was 0.247; with XMD8-85 + Linsitinib (first compound 0.08 µM), 0.259; with XMD8-85 + Linsitinib (first compound 0.253 µM) it was 0.314; with XMD8-85 + Linsitinib (first compound 0.8 µM) it was 0.308; with XMD8-85 + Linsitinib (first compound 2.53 µM), 0.231; with XMD8-85 + Linsitinib (first compound 8 µM), 0.215. Moreover, the relative viability in the assay with XMD8-85 + Trametinib (first compound 0.08 µM) worked out at 0.373; in the assay with XMD8-85 + Trametinib (first compound 0.253 µM), 0.375; with XMD8-85 + Trametinib (first compound 0.8 µM), 0.405; with XMD8-85 + Trametinib (first compound 2.53 µM), 0.37; with XMD8-85 + Trametinib (first compound 8 µM) it was 0.368.

In the case of COR-L23, the relative viability with XMD8-85 + Palbociclib (first compound 0.08 µM) came out at 0.269; in the assay with XMD8-85 + Palbociclib (first compound 0.253 µM), 0.234; with XMD8-85 + Palbociclib (first compound 0.8 µM) it was 0.269; in the assay with XMD8-85 + Palbociclib (first compound 2.53 µM), 0.294; with XMD8-85 + Palbociclib (first compound 8 µM) it was 0.238; in the assay with XMD8-85 + Navitoclax (first compound 0.08 µM) it was 1.24. Besides, the relative viability with XMD8-85 + Navitoclax (first compound 0.253 µM) is 1.06; with XMD8-85 + Navitoclax (first compound 0.8 µM) it was 1.02; with XMD8-85 + Navitoclax (first compound 2.53 µM) it was 0.871; with XMD8-85 + Navitoclax (first compound 8 µM) it was 0.629; with XMD8-85 + Linsitinib (first compound 0.08 µM), 0.972; with XMD8-85 + Linsitinib (first compound 0.253 µM), 0.989. Also, the relative viability worked out at 1.02 with XMD8-85 + Linsitinib (first compound 0.8 µM); 0.99 in the assay with XMD8-85 + Linsitinib (first compound 2.53 µM); 0.497 in the assay with XMD8-85 + Linsitinib (first compound 8 µM); 0.488 with XMD8-85 + Trametinib (first compound 0.08 µM); 0.548 in the assay with XMD8-85 + Trametinib (first compound 0.253 µM); 0.651 with XMD8-85 + Trametinib (first compound 0.8 µM). The relative viability was found to be 0.548 with XMD8-85 + Trametinib (first compound 2.53 µM) and 0.333 in the assay with XMD8-85 + Trametinib (first compound 8 µM).

On to NCI-H1915, for which the relative viability in the assay with XMD8-85 + Palbociclib (first compound 0.08 µM) came to 0.721; with XMD8-85 + Palbociclib (first compound 0.253 µM), 0.529; with XMD8-85 + Palbociclib (first compound 0.8 µM), 0.537; with XMD8-85 + Palbociclib (first compound 2.53 µM), 0.549; with XMD8-85 + Palbociclib (first compound 8 µM) it was 0.371; in the assay with XMD8-85 + Navitoclax (first compound 0.08 µM), 0.859. Further, the relative viability with XMD8-85 + Navitoclax (first compound 0.253 µM) was found to be 0.817; with XMD8-85 + Navitoclax (first compound 0.8 µM), 0.791; with XMD8-85 + Navitoclax (first compound 2.53 µM) it was 0.771; in the assay with XMD8-85 + Navitoclax (first compound 8 µM), 0.622; with XMD8-85 + Linsitinib (first compound 0.08 µM), 1.15; in the assay with XMD8-85 + Linsitinib (first compound 0.253 µM), 1.15. Further, the relative viability with XMD8-85 + Linsitinib (first compound 0.8 µM) was 1.08; with XMD8-85 + Linsitinib (first compound 2.53 µM) it was 1.16; with XMD8-85 + Linsitinib (first compound 8 µM) it was 0.999; with XMD8-85 + Trametinib (first compound 0.08 µM), 0.328; in the assay with XMD8-85 + Trametinib (first compound 0.253 µM) it was 0.309; with XMD8-85 + Trametinib (first compound 0.8 µM) it was 0.251. The relative viability with XMD8-85 + Trametinib (first compound 2.53 µM) was 0.478; with XMD8-85 + Trametinib (first compound 8 µM), 0.282.

For the cell line NCI-H2126, the relative viability with XMD8-85 + Palbociclib (first compound 0.08 µM) came out at 0.415; with XMD8-85 + Palbociclib (first compound 0.253 µM), 0.394; with XMD8-85 + Palbociclib (first compound 0.8 µM) it was 0.378; with XMD8-85 + Palbociclib (first compound 2.53 µM) it was 0.32; in the assay with XMD8-85 + Palbociclib (first compound 8 µM), 0.387; in the assay with XMD8-85 + Navitoclax (first compound 0.08 µM), 0.946. The relative viability turned out to be 0.935 with XMD8-85 + Navitoclax (first compound 0.253 µM); 0.899 in the assay with XMD8-85 + Navitoclax (first compound 0.8 µM); 0.897 in the assay with XMD8-85 + Navitoclax (first compound 2.53 µM); 0.839 in the assay with XMD8-85 + Navitoclax (first compound 8 µM); 0.69 with XMD8-85 + Linsitinib (first compound 0.08 µM); 0.766 in the assay with XMD8-85 + Linsitinib (first compound 0.8 µM). The relative viability came to 0.726 with XMD8-85 + Linsitinib (first compound 2.53 µM); 0.681 in the assay with XMD8-85 + Linsitinib (first compound 8 µM); 0.584 with XMD8-85 + Trametinib (first compound 0.08 µM); 0.6 with XMD8-85 + Trametinib (first compound 0.253 µM); 0.615 in the assay with XMD8-85 + Trametinib (first compound 0.8 µM); 0.538 with XMD8-85 + Trametinib (first compound 2.53 µM). Moreover, the relative viability in the assay with XMD8-85 + Trametinib (first compound 8 µM) was 0.398.

Regarding NCI-H2087, the relative viability was found to be 0.205 with XMD8-85 + Palbociclib (first compound 0.08 µM); 0.168 with XMD8-85 + Palbociclib (first compound 0.253 µM); 0.222 in the assay with XMD8-85 + Palbociclib (first compound 0.8 µM); 0.217 with XMD8-85 + Palbociclib (first compound 2.53 µM); 0.172 in the assay with XMD8-85 + Palbociclib (first compound 8 µM); 1.06 with XMD8-85 + Navitoclax (first compound 0.08 µM). The relative viability was 1.01 with XMD8-85 + Navitoclax (first compound 0.253 µM); 1.17 with XMD8-85 + Navitoclax (first compound 0.8 µM); 1.05 in the assay with XMD8-85 + Navitoclax (first compound 2.53 µM); 0.772 with XMD8-85 + Navitoclax (first compound 8 µM); 0.929 with XMD8-85 + Linsitinib (first compound 0.08 µM); 1.01 with XMD8-85 + Linsitinib (first compound 0.253 µM). In addition, the relative viability stood at 1.09 with XMD8-85 + Linsitinib (first compound 0.8 µM); 1.06 with XMD8-85 + Linsitinib (first compound 2.53 µM); 0.7 in the assay with XMD8-85 + Linsitinib (first compound 8 µM); 0.17 with XMD8-85 + Trametinib (first compound 0.08 µM); 0.203 with XMD8-85 + Trametinib (first compound 0.253 µM); 0.19 in the assay with XMD8-85 + Trametinib (first compound 0.8 µM). Also, the relative viability with XMD8-85 + Trametinib (first compound 2.53 µM) was found to be 0.19; in the assay with XMD8-85 + Trametinib (first compound 8 µM), 0.172.

On to LC-2-ad, for which the relative viability with XMD8-85 + Palbociclib (first compound 0.08 µM) is 0.482; with XMD8-85 + Palbociclib (first compound 0.253 µM) it was 0.452; in the assay with XMD8-85 + Palbociclib (first compound 0.8 µM), 0.51; with XMD8-85 + Palbociclib (first compound 2.53 µM), 0.49; with XMD8-85 + Palbociclib (first compound 8 µM) it was 0.39; with XMD8-85 + Navitoclax (first compound 0.08 µM), 0.512. For the same cell line, the relative viability was determined as 0.364 with XMD8-85 + Navitoclax (first compound 0.253 µM); 0.574 with XMD8-85 + Navitoclax (first compound 2.53 µM); 0.328 in the assay with XMD8-85 + Navitoclax (first compound 8 µM); 0.905 with XMD8-85 + Linsitinib (first compound 0.08 µM); 0.923 with XMD8-85 + Linsitinib (first compound 0.253 µM); 0.836 in the assay with XMD8-85 + Linsitinib (first compound 0.8 µM). The relative viability in the assay with XMD8-85 + Linsitinib (first compound 2.53 µM) came out at 0.692; with XMD8-85 + Linsitinib (first compound 8 µM) it was 0.452; in the assay with XMD8-85 + Trametinib (first compound 0.08 µM) it was 0.93; with XMD8-85 + Trametinib (first compound 0.253 µM), 0.914; with XMD8-85 + Trametinib (first compound 0.8 µM) it was 0.955; with XMD8-85 + Trametinib (first compound 2.53 µM), 0.997. For the same cell line, in the assay with XMD8-85 + Trametinib (first compound 8 µM), the relative viability was 0.458.
